# Assay results: patent US20170008888A1 (KYORIN PHARMACEUTICAL CO., LTD., priority 2014, published 2017)
# Assays:
# Type in all cases: binding
# ERK5 = target: T1, ERK5 (Homo sapiens, UniProt Q13164); test: Probe-based (AX9989 acyl phosphate ATP probe) kinase profiling in Jurkat lysate: ERK5; conditions: for IC50: calculated from percent inhibition of AX9989 labeling and the screening concentration, Jurkat lysate; for inhibition at 1 µM: screening concentration 1.0 μM, read-out: Kinase inhibition % at indicated screening concentration: ERK5
# T1 construct: screened for activity against several kinases in Jurkat cells; endogenous in cells; host or cells: Jurkat cell lysate
# Description: (§1) In this example, potency of the compounds as ERK5 inhibitors was assessed, and the compounds were screened for activity against several kinases in Jurkat cells.
# (§2) Jurkat cell pellets were resuspended in four volumes of lysis buffer (50 mM HEPES pH 7.5, 150 mM NaCl, 0.1% Triton-X-100, 1% v/v phosphatase, inhibitor cocktail II [EMD/Calbiochem, #524625]), sonicated using a tip, sonicator, and Dounce homogenized. Lysate was cleared by centrifugation, at 16,000 g for 15 min., was gel filtered (BioRad 10DG) and MnCl2 was then added to a final concentration of 20 mM before treatment with the test compound and probe labeling. […] All compound treatments were performed at room temperature.
# (§3) Acyl phosphate ATP probe (AX9989) labeling reactions were performed at room temperature with a final probe concentration of 5 μM after a 15 min pre-incubation of lysate with a test compound. All reactions were performed in duplicate, using 445 μl/sample at 5 mg/ml. Probe-labeled lysates were denatured and reduced (6 M urea, 10 mM DTT, 65° C., 15 min), alkylated (40 mM iodoacetamide, 37° C., 30 min, and gel filtered (Sephadex G25) into 10 mM ammonium bicarbonate, 2 M urea, 5 mM methionine. The desalted protein mixture was digested with trypsin (0.015 mg/ml) for 1 hr at 37° C., and desthiobiotinylated peptides were captured using a […] high-capacity streptavidin resin (Thermo Scientific). Captured peptides were then washed extensively using 150 μl/wash with three different wash buffers: (A) 3 times with 1% triton, 0.5% tergitol, 1 mM EDTA in PBS; (B) 18 times with PBS; and (C) 8 times with HPLC grade water. Peptides were eluted from the streptavidin beads using two 35-μL washes of a 50% CH3CN/water mixture containing 0.1% TFA at room temperature.
# (§4) Kinase active site peptides were identified and quantified using LC/MS. Percent inhibition was calculated as the normalized decrease in the ESI-MS fragment intensities of probe-labeled peptides in samples incubated with the test compound compared to those without.
# ERK5 IC50 values were calculated from the percent inhibition and the screening concentration.
# AurA = target: T2, AurA (Homo sapiens, UniProt O14965); test: Probe-based (AX9989) kinase profiling in Jurkat lysate: AurA; conditions: screening concentration 1.0 μM; read-out: Kinase inhibition % at indicated screening concentration: AurA
# T2 construct: screened for activity against several kinases in Jurkat cells; endogenous in cells; host or cells: Jurkat cell lysate
# T2 sequence (O14965 1-403): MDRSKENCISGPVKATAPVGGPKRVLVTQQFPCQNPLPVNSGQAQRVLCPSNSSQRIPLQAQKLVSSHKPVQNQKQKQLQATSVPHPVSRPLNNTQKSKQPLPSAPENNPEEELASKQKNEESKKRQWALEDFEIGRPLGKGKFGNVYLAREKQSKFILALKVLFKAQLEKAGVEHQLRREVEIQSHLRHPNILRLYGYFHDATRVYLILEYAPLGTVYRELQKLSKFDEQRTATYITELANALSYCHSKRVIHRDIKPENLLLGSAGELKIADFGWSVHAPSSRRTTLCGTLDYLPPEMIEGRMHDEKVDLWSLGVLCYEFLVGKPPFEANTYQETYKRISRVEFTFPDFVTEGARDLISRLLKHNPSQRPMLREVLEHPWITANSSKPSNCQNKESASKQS
# Description: as §1, §2, §3, §4
# AurB or AurC = test: Probe-based (AX9989) kinase profiling in Jurkat lysate: AurB or AurC; conditions: screening concentration 1.0 μM
# Description: as §1, §2, §3, §4
# JAK1 = target: T3, JAK1 (Homo sapiens, UniProt P23458); test: Probe-based (AX9989) kinase profiling in Jurkat lysate: JAK1; conditions: screening concentration 1.0 μM; read-out: Kinase inhibition % at indicated screening concentration: JAK1
# T3 construct: screened for activity against several kinases in Jurkat cells; endogenous in cells; host or cells: Jurkat cell lysate
# Description: as §1, §2, §3, §4
# AMPKa1 or AMPKa2 = test: Probe-based (AX9989) kinase profiling in Jurkat lysate: AMPKa1 or AMPKa2; conditions: screening concentration 1.0 μM
# Description: as §1, §2, §3, §4
# TAO2 = target: T4, TAO2 (Homo sapiens, UniProt Q9UL54); test: Probe-based (AX9989) kinase profiling in Jurkat lysate: TAO2; conditions: screening concentration 1.0 μM; read-out: Kinase inhibition % at indicated screening concentration: TAO2
# T4 construct: screened for activity against several kinases in Jurkat cells; endogenous in cells; host or cells: Jurkat cell lysate
# T4 sequence (Q9UL54 1-1235): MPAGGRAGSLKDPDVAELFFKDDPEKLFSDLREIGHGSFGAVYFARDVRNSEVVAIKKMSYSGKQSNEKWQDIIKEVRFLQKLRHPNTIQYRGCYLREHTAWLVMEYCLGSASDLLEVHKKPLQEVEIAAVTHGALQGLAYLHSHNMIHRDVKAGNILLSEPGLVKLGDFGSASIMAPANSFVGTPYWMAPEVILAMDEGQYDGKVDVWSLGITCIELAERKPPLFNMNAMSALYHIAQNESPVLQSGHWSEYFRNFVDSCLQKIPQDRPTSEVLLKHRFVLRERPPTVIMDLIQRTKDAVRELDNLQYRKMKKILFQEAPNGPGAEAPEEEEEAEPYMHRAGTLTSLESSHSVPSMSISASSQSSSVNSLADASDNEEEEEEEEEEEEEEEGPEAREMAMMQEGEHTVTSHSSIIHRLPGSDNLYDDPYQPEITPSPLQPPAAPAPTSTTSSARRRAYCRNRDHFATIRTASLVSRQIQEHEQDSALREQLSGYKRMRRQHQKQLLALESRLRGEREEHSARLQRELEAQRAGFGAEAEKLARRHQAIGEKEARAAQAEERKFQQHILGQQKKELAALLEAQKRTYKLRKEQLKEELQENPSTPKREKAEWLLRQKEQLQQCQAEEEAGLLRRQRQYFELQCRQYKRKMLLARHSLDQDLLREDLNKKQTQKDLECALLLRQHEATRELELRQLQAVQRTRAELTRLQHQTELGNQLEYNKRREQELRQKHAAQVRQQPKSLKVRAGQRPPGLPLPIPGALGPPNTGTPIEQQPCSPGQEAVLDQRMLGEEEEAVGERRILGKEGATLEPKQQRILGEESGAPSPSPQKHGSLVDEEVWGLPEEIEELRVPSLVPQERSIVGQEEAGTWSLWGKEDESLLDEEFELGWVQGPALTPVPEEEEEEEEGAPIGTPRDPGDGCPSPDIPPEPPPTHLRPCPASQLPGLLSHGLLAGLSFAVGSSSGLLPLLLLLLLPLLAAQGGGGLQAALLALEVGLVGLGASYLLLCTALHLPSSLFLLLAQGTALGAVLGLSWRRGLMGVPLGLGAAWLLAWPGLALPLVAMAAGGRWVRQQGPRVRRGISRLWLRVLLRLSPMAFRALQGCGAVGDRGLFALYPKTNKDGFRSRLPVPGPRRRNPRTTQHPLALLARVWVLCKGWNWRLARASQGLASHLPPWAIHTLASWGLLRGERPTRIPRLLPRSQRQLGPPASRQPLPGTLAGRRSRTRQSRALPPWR
# Description: as §1, §2, §3, §4
# ACK = target: T5, ACK (Homo sapiens, UniProt Q07912); test: Probe-based (AX9989) kinase profiling in Jurkat lysate: ACK; conditions: screening concentration 1.0 μM; read-out: Kinase inhibition % at indicated screening concentration: ACK
# T5 construct: screened for activity against several kinases in Jurkat cells; endogenous in cells; host or cells: Jurkat cell lysate
# Description: as §1, §2, §3, §4
# ABL or ARG = test: Probe-based (AX9989) kinase profiling in Jurkat lysate: ABL or ARG; conditions: screening concentration 1.0 μM
# Description: as §1, §2, §3, §4
# T5 sequence (Q07912 whole entry): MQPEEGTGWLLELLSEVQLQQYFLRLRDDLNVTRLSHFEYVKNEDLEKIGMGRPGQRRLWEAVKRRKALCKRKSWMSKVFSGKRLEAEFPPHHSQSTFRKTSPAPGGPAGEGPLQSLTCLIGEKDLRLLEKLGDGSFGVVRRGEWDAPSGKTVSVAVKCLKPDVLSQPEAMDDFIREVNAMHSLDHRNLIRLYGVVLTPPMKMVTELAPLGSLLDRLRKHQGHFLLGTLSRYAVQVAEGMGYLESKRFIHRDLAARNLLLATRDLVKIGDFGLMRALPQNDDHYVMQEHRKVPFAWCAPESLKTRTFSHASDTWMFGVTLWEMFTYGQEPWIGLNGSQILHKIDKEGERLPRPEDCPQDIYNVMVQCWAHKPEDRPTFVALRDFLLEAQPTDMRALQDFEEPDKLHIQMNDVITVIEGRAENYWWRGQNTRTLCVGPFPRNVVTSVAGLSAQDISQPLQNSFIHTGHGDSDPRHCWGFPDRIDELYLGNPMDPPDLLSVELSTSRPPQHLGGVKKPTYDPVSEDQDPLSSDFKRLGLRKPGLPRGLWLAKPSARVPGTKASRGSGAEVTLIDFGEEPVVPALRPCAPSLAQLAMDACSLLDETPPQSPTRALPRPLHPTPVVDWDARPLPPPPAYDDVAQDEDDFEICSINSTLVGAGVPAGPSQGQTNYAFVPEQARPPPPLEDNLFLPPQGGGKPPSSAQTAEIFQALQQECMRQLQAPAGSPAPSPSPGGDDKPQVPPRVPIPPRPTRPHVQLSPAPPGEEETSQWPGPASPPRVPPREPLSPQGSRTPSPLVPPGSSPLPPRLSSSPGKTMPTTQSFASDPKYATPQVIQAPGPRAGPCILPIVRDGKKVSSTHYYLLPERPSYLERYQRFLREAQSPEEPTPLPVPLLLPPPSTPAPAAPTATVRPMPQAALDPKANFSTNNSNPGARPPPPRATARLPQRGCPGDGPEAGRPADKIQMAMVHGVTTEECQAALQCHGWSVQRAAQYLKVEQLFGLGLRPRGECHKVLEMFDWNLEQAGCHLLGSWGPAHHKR
# T1 sequence (Q13164 whole entry): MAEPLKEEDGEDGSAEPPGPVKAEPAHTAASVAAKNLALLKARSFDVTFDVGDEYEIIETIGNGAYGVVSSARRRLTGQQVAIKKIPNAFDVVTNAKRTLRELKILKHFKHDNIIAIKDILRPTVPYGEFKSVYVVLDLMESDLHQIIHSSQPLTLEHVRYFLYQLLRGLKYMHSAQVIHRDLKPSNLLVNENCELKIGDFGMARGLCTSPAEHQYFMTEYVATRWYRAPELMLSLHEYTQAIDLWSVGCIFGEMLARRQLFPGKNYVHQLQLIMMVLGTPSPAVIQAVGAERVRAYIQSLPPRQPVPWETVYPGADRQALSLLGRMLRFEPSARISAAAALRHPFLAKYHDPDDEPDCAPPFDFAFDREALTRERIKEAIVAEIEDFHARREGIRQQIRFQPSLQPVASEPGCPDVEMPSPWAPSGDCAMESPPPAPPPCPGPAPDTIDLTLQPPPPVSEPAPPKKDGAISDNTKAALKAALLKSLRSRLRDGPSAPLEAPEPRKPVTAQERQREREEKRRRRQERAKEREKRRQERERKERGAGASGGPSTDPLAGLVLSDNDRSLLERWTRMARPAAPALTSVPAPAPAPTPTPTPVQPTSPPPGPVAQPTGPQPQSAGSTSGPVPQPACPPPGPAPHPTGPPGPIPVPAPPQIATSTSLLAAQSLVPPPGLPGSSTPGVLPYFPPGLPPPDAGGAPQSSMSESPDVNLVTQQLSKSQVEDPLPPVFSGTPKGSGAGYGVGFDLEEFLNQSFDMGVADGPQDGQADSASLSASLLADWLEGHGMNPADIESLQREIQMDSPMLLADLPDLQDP
# T3 sequence (P23458 whole entry): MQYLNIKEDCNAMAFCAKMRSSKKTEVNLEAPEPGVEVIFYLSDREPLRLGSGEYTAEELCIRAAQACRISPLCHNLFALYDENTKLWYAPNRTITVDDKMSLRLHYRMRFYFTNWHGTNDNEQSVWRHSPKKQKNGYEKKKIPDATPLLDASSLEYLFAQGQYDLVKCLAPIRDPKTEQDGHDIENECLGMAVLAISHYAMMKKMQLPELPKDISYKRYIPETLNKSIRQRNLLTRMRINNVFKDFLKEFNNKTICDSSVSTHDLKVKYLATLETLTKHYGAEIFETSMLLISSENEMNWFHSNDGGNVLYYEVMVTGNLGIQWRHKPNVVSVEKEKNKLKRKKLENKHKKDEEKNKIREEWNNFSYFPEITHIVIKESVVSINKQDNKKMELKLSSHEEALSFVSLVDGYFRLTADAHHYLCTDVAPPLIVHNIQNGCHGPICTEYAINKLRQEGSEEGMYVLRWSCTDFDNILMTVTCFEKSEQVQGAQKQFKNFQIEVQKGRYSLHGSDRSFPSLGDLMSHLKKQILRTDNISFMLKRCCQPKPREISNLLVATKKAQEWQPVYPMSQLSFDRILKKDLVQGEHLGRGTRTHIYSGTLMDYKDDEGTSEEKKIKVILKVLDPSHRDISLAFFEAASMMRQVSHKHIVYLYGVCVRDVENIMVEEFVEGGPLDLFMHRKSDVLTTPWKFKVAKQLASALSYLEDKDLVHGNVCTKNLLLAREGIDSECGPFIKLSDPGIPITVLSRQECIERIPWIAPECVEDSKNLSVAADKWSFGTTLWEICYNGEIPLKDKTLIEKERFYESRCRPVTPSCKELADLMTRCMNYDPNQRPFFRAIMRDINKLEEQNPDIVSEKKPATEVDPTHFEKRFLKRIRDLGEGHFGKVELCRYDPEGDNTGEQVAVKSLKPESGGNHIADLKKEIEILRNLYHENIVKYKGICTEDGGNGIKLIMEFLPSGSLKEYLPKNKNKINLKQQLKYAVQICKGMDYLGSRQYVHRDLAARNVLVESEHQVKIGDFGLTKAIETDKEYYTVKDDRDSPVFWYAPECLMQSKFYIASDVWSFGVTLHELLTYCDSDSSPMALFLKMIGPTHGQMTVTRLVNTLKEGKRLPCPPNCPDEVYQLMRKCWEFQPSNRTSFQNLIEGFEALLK
SMILES,IC50 (ERK5),inhibition at 1 µM (ERK5),inhibition at 1 µM (AurA),Kinase inhibition % at indicated screening concentration: AurB or AurC (AurB or AurC),inhibition at 1 µM (JAK1),Kinase inhibition % at indicated screening concentration: AMPKa1 or AMPKa2 (AMPKa1 or AMPKa2),inhibition at 1 µM (TAO2),inhibition at 1 µM (ACK),Kinase inhibition % at indicated screening concentration: ABL or ARG (ABL or ARG)
CN1C(=O)C2CCCCC2N(C)c2cc(NC3CCC(O)CC3)ncc21 (stereo not drawn) [Compound 76],> 500 nM,≤ 35%,≤ 35%,E (E is ≦35%),≤ 35%,E (E is ≦35%),≤ 35%,≤ 35%,E (E is ≦35%)
CN(C)CCn1cc(Nc2cc3c(cn2)N(C)C(=O)c2ccccc2N3C)cn1 [Compound 77],101 to 500 nM,75 to 90%,50 to 75%,B (B is >75% to ≦90%),≤ 35%,E (E is ≦35%),35 to 50%,≤ 35%,E (E is ≦35%)
COC(=O)[C@H]1CC[C@H](Nc2cc3c(cn2)N(C)C(=O)c2ccccc2N3C)CC1 [Compound 81],> 500 nM,50 to 75%,≤ 35%,E (E is ≦35%),≤ 35%,E (E is ≦35%),≤ 35%,≤ 35%,E (E is ≦35%)

# Second part, the compound after the results:
IC50 (ERK5),inhibition at 1 µM (ERK5),inhibition at 1 µM (AurA),Kinase inhibition % at indicated screening concentration: AurB or AurC (AurB or AurC),inhibition at 1 µM (JAK1),Kinase inhibition % at indicated screening concentration: AMPKa1 or AMPKa2 (AMPKa1 or AMPKa2),inhibition at 1 µM (TAO2),inhibition at 1 µM (ACK),Kinase inhibition % at indicated screening concentration: ABL or ARG (ABL or ARG),SMILES
> 500 nM,50 to 75%,≤ 35%,E (E is ≦35%),≤ 35%,E (E is ≦35%),≤ 35%,≤ 35%,E (E is ≦35%),CN1C(=O)c2ccccc2N(C)c2cc(Nc3ccccc3Cl)ncc21 [Compound 86]
101 to 500 nM,50 to 75%,≤ 35%,E (E is ≦35%),≤ 35%,E (E is ≦35%),≤ 35%,≤ 35%,E (E is ≦35%),COc1ccc(C(=O)N2CCNCC2)cc1Nc1cc2c(cn1)N(C)C(=O)c1ccccc1N2C [Compound 87]
